Calls of active or inactive are those of the source.
Legend:
[1] = target: T1, Rac GTPase-activating protein 1 (Homo sapiens, UniProt Q9H0H5); assay: MgcRacGAP GTPase-activating activity inhibitors, confirmation, biochemical, ADP Hunter fluorescence, primary and confirmatory (AID 624330); assay type: functional
T1 sequence (Q9H0H5 whole entry): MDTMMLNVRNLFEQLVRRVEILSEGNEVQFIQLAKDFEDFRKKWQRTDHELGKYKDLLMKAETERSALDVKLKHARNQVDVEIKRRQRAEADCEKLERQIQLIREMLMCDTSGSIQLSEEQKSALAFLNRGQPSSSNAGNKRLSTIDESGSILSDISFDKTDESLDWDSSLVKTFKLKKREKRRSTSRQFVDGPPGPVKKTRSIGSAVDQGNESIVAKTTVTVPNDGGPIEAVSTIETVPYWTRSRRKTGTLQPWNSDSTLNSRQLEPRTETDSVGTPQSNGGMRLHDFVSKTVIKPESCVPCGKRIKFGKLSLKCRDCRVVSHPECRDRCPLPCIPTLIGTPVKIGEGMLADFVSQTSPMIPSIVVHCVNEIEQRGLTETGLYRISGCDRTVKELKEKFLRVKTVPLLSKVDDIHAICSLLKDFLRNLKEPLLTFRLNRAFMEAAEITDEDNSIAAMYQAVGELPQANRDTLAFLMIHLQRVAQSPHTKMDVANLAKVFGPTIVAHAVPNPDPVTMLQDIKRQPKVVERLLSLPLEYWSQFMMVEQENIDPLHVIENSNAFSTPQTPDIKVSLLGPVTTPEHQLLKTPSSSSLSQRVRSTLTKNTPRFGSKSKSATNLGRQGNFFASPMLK

Escherichia coli = assay: microbe, parasite or virus in culture
Cytochrome P450 2C9 [2] = target: T2, Cytochrome P450 2C9 (Homo sapiens, UniProt P11712)
T2 sequence (P11712 whole entry): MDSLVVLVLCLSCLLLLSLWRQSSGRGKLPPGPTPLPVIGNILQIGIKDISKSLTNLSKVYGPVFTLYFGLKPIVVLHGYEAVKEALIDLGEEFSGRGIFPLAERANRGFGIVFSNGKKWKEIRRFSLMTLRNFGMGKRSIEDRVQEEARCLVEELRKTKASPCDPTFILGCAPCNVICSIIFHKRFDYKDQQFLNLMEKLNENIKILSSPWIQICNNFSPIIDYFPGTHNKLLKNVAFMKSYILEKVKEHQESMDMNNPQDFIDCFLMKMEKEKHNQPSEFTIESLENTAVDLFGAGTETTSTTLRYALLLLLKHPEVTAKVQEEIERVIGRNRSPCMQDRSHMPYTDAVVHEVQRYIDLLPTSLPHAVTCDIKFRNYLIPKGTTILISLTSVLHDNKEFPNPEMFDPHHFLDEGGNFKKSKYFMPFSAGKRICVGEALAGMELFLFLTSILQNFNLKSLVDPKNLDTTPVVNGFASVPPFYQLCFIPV

A-375 [3] = assay: MITF: Counter assay: A375 proliferation Measured in Cell-Based System Using Plate Reader - 2084-03_Inhibitor_Dose_DryPowder_Activity. [Related pubchem assays (depositor defined):AID488944]; assay type: functional; conditions: Homo sapiens
A-375 [4] = assay: A375 melanoma cell viability reduction, dose response, counter-screen for MITF modulator project, cherry-pick samples, set 2 (AID 540335); assay type: functional, cell-based; conditions: Homo sapiens
HeLa = assay: HeLa cell cytotoxicity, dose response, cytotoxicity control for MITF activator project, CellTiter-Glo luminescence, cherry-pick samples (AID 540259); assay type: functional, cell-based; conditions: Homo sapiens
[5] = target: T3, Microphthalmia-associated transcription factor (Homo sapiens, UniProt O75030); assay: TRPM1 promoter luciferase signal decrease, dose response, MITF inhibitor project, cell-based, SK-MEL-5, cherry-picked, set 3 (AID 493073); assay type: functional
T3 sequence (O75030 whole entry): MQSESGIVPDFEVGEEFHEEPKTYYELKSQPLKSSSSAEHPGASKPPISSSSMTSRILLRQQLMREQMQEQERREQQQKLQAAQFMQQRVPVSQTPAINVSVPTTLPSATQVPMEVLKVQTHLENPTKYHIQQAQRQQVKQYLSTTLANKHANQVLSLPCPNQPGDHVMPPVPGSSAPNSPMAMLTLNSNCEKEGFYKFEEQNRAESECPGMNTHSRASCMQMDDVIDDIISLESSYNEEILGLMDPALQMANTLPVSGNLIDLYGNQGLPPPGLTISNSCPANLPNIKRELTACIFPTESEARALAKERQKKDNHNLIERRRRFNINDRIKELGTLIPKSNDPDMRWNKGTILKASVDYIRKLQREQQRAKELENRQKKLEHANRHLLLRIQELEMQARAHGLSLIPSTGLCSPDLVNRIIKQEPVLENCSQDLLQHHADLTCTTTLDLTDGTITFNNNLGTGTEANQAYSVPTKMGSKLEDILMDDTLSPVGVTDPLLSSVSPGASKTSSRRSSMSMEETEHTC

cells = assay type: functional
[6] = Luminescence Cell-Based Dose Retest to Confirm Inhibitors of Cancer Stem Cells. [Related pubchem assays (depositor defined):AID2717, AID2721]; assay type: functional; conditions: Homo sapiens
[7] = Vero E6 cell cytotoxicity, dose response, cytotoxicity control for non-replicating M. tuberculosis project, secondary assay (AID 492998); assay type: functional, VeroE6; conditions: Vero C1008
[8] = HepG2 cell cytotoxicity, dose response, cytotoxicity control for non-replicating M. tuberculosis project (AID 489018); assay type: functional; conditions: Mycobacterium tuberculosis
[9] = THP-1 cell cytotoxicity, dose response, cytotoxicity control for non-replicating M. tuberculosis project (AID 489025); assay type: functional
Cytochrome P450 3A4 = Cytochrome P450 3A4 (Homo sapiens, UniProt P08684);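 further: CYP3A4 tested as one member of a cytochrome P450 panel screen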
Cytochrome P450 3A4, sequence (P08684 whole entry): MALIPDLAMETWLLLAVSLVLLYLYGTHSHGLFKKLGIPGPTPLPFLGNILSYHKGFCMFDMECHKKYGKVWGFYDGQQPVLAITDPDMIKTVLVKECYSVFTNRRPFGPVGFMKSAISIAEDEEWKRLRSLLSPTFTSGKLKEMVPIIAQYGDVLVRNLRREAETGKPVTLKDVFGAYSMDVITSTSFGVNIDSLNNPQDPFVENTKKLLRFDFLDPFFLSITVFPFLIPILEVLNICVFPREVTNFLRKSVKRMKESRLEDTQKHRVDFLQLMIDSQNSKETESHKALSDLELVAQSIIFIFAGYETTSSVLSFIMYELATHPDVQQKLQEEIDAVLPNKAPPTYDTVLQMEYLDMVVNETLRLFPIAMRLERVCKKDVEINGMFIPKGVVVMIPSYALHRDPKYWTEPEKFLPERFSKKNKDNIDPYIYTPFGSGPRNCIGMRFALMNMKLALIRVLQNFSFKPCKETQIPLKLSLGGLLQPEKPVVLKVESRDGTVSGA

[10] = cytotoxicity toward DRD oncogenic fibroblasts, dose response, cell-based, non-viral oncogenic, luminescence (AID 1934); assay type: functional; conditions: Homo sapiens
BJ [11] = assay: cytotoxicity toward Ras-transformed BJeLR fibroblasts, dose response, cell-based, alamar blue fluorescence, cherrypicked samples (AID 2631); assay type: functional; conditions: Homo sapiens;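 further: confirmatory dose-response assay in RAS-dependent BJ fibroblasts engineered with TERT, LT and ST, with cytotoxicity read by fluorescence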
BJ [12] = assay: cytotoxicity toward BJ-TERT-LT-ST fibroblasts, dose response, cell-based, RAS-independent, luminescence (AID 1935); assay type: functional; conditions: Homo sapiens;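 further: BJ fibroblasts immortalized with TERT plus LT and ST oncogenes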
BJ [13] = assay: cells; assay type: functional, cell-based; conditions: Homo sapiens
BJ [14] = assay: cytotoxicity toward BJ-TERT fibroblasts, dose response, cell-based, RAS-independent, luminescence (AID 1933); assay type: functional; conditions: Homo sapiens
Protein skinhead-1 = target: T4, Protein skinhead-1 (Caenorhabditis elegans, UniProt P34707); assay type: functional
T4 sequence (P34707 whole entry): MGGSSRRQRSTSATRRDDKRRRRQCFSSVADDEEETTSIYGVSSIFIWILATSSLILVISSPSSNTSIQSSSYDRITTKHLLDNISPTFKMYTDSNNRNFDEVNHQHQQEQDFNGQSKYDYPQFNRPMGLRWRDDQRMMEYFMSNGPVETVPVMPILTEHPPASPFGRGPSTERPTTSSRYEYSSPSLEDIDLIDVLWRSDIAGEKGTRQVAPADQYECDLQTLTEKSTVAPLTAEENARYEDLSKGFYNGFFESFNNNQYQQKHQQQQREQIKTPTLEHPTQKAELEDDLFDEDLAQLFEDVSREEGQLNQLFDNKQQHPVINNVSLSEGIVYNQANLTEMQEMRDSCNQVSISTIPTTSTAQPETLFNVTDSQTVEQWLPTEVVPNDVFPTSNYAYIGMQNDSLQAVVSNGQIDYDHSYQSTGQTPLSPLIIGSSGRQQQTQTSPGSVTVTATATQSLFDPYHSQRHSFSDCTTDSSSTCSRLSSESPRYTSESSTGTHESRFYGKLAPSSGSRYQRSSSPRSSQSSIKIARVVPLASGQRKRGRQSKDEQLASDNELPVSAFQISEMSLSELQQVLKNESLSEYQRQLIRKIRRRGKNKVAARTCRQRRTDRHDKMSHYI

Cytochrome P450 2C19 = Cytochrome P450 2C19 (Homo sapiens, UniProt P33261); assay: Cytochrome panel assay with activity outcomes. Panel member name: p450-cyp2c19 Compounds with AC50 equal or less than 10 uM are considered active; assay type: functional; conditions: read-out: AC50
Cytochrome P450 2C19, sequence (P33261 whole entry): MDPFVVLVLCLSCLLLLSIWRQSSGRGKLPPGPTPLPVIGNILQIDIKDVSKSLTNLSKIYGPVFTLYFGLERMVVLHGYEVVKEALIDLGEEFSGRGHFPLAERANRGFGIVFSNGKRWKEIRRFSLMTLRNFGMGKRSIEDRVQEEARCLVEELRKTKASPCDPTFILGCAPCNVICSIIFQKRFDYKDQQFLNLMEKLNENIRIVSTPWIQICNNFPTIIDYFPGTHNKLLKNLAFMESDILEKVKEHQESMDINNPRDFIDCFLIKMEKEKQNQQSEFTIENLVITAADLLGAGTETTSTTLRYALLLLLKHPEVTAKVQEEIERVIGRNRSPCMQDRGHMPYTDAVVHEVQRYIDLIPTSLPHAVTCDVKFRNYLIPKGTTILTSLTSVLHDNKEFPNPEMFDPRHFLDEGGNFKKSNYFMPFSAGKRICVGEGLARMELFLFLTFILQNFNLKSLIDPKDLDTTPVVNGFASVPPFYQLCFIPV

Cytochrome P450 2C9 [15] = target: T2, Cytochrome P450 2C9; remark: listed apart in the source
[16] = cytotoxicity toward NIH3T3 fibroblasts, dose response, counter-screen, cell-based, ATP luminescence, mouse fibroblasts (AID 2010); assay type: functional;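 further: cells exposed to compound for about 90 hours before reading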
[17] = target: T5, Mannose-6-phosphate isomerase (Homo sapiens, UniProt P34949); assay: human PMI inhibitors, high substrate, primary screen, biochemical, fluorescence intensity, high mannose 6-phosphate (AID 1220)
T5 sequence (P34949 whole entry): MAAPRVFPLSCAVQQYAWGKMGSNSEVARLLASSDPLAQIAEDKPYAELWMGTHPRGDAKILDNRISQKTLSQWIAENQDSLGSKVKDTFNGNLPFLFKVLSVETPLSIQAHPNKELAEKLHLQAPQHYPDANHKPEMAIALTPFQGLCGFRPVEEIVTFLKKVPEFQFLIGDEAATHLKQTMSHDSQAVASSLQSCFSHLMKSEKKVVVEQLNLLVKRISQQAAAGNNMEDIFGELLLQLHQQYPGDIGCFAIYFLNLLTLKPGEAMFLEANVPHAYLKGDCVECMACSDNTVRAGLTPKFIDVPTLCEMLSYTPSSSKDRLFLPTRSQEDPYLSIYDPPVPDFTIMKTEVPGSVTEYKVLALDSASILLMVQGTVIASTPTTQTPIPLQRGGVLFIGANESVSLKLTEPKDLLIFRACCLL

[18] = inhibitors of intracellular T. cruzi replication, confirmation, NIH3T3 host cells, beta-gal luminescence (AID 2044); assay type: functional, cell-based;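 further: intracellular parasites grown in NIH/3T3 mouse fibroblasts as host cells; luminescent beta-galactosidase reporter signal from transgenic T. cruzi replicating inside host cells; inhibitors lower the luminescence signal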
Coagulation factor XII = target: T6, Coagulation factor XII (Homo sapiens, UniProt P00748); assay type: functional;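 further: activated factor XIIa alpha cleaving a fluorogenic AMC peptide substrate; inhibitor potency from loss of enzyme activity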
T6 sequence (P00748 whole entry): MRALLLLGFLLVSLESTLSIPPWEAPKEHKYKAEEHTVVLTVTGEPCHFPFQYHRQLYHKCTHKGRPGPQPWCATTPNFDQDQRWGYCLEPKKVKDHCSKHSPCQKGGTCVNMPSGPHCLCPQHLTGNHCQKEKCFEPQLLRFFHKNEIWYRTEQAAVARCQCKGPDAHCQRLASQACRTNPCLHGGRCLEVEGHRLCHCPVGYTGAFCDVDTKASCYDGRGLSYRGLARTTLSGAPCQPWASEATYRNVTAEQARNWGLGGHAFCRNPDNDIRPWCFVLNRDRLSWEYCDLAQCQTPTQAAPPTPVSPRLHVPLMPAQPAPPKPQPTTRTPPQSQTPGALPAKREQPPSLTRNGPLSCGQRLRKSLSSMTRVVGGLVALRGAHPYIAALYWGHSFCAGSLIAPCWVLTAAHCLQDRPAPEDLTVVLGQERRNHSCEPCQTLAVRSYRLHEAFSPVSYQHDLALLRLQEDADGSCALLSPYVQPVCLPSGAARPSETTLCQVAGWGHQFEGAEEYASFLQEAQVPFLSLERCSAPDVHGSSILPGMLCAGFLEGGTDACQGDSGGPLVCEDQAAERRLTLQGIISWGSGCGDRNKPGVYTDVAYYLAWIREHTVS

Compound: CC(C)C(=O)Nc1ccc(Nc2ccccc2)cc1
- IC50 [1]: 51.1 µM (active)
- AC50 (Escherichia coli): 29.9 µM (active)

Compound: O=C(NCC1CCCO1)c1cc(-c2ccc(Cl)cc2Cl)on1 (stereo not drawn)
- AC50 (Cytochrome P450 2C9 [2]): inconclusive
- AC50 (A-375 [3]): > 11 µM (active)
- AC50 (A-375 [4]): > 11 µM (active)

Compound: Cc1ccc2c(Cl)c(C(=O)Nc3cccnc3)sc2c1
- AC50 (HeLa): 46.7 µM (active)

Compound: CC1CCCC(NCC(O)COC(c2ccc(F)cc2)c2ccc(F)cc2)C1C (stereo not drawn)
- AC50 [5]: 10.8 µM (active)
- IC50 (cells): 11.4 µM (active)
- AC50 [6]: 6.35 µM (active)
- CC50 [7]: > 20 µM (active)
- CC50 [8]: 16.1 µM (active)
- CC50 [9]: 15.8 µM (active)
- AC50 (A-375 [4]): 20.2 µM (active)

Compound: Cc1cnc(CNc2cc(-c3ccccc3Cl)ncn2)cn1
- AC50 (Cytochrome P450 3A4): inconclusive

Compound: COc1ccc(N/C=C/C(=O)c2cc(OC)c(OC)c(OC)c2)cc1
- EC50 [10]: 0.603 µM (active)
- EC50 (BJ [11]): 0.133 µM (active)
- EC50 (BJ [12]): 0.441 µM (inconclusive)
- EC50 (BJ [13]): 20.5 µM (inconclusive)
- EC50 (BJ [14]): 0.666 µM (active)

Compound: CC(C)c1ccc(OCC(=O)N2CCN(C)CC2)c(Br)c1
- AC50 (Escherichia coli): 57.9 µM (active)

Compound: Clc1ccccc1/C=C/c1nc(-c2cccnc2)no1
- IC50 (Protein skinhead-1): > 100 µM (inactive)
- AC50 (HeLa): 54.3 µM (active)

Compound: CCCC(=O)Nc1nc2nc(-c3ccccc3)cc(-c3ccccc3)n2n1
- AC50 (Cytochrome P450 2C19): 11.2 µM (inconclusive)
- AC50 (Cytochrome P450 2C9 [15]): 0.0112 µM (inconclusive)
- AC50 (Cytochrome P450 3A4): inconclusive

Compound: CC(=O)/N=C(\N)Nc1nc2cc(C)ccc2o1
- AC50 (A-375 [3]): > 35 µM (active)
- AC50 (A-375 [4]): > 35 µM (active)

Compound: Cc1ccc(/C=N/NC(=O)c2cc(-c3ccncc3)nc3ccccc23)o1
- EC50 [10]: 2.27 µM (active)
- EC50 (BJ [11]): 1.41 µM (active)
- EC50 (BJ [12]): 25.4 µM (active)
- EC50 (BJ [13]): 37.5 µM (inconclusive)
- EC50 (BJ [14]): 2.77 µM (active)

Compound: CCO/C(O)=C(/C)C1=NC(C)(C)Cc2ccccc21
- EC50 [16]: > 60 µM (not active)
- IC50 [17]: 37.9 µM (active)
- EC50 [18]: 10.7 µM (active)
- IC50 (Coagulation factor XII): > 50 µM (inactive)

Compound: C/C(=N\Nc1ccccn1)c1ccc(C(C)C)cc1
- AC50 (HeLa): 46.7 µM (active)

Compound: COc1cccc(-c2cc(O)c3cc(NC(C)=O)ccc3n2)c1
- AC50 (Escherichia coli): 28.2 µM (active)

Source: ChEMBL document CHEMBL1201862, “PubChem BioAssay data set” (2004)
